The text below walks through data of paper PMC10223987 (Viruses, 2023).

Structures can show the parent of a compound that is named as a salt. Where two headings read alike, the source gives them in different places. Bounds are passed on as bounds.

As a reminder, the IC50 is the midpoint of a concentration-inhibition curve. For orientation: inhibition means the percentage by which the read-out fell short of the control. What is called melting point is the temperature, or range, at which the solid turns liquid.

Data set [1] concerns the target thrombin (Homo sapiens, UniProt P00734). Description: Thrombin enzyme inhibition assay. It is filed as biochemical.
The target of data set [2] is factor Xa (Homo sapiens, UniProt P00742). Description: Factor Xa enzyme inhibition assay. It is filed as biochemical.
Data set [3] has as its system SARS-CoV-2 pseudovirus. Put plainly: microbe, parasite or virus in culture. Conditions: Severe acute respiratory syndrome-related coronavirus; for inhibition at 100 µM: VeroE6/TMPRSS2, read-out: SARS-CoV-2 Pseudovirus % Inhibition; for IC50: VeroE6/TMPRSS2, read-out: SARS-CoV-2 Pseudovirus IC50. The data set is classed as cell-based.
The subject of data set [4] is ACE2/TMPRSS2-dependant SARS-CoV-2 S protein-mediated membrane fusion. Put plainly: microbe, parasite or virus in culture. The data set is classed as cell-based.
For data set [5], the system named is VeroE6-TMPRSS2 cells. Description: Cell toxicity assay (Celltiter-Glo). Conditions: 24 h, read-out: Cell Viability Inhibition IC50. The data set is classed as cell-based.
For data set [6], the system named is DSP1-7 and DSP8-11 co-expressing 293FT cells. Description: cells. As to conditions: TMPRSS2-independent / DSP reassociation control; read-out: CoTF Assay IC50. The data set is classed as cell-based.
Data set [7] concerns the target TMPRSS2 (Homo sapiens, UniProt O15393). Description: TMPRSS2 enzyme inhibition assay (fluorescence-quenched peptide substrate). It is filed as biochemical. As to conditions: enzymatic assay.
For data set [8] the following is noted: cited from earlier work.
Where [9] appears, read: Severe acute respiratory syndrome coronavirus 2, read-out: S2TA Assay IC50.

factor Xa, sequence (P00742 235-488 limits assumed): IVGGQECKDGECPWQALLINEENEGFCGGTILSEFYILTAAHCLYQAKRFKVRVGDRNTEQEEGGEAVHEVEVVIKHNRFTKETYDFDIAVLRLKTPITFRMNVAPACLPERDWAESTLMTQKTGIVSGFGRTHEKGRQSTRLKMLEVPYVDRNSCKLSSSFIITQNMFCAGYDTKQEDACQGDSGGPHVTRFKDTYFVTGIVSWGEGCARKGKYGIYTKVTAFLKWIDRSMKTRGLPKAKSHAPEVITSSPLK
factor Xa, sequence (P00742 41-179 partner limits assumed): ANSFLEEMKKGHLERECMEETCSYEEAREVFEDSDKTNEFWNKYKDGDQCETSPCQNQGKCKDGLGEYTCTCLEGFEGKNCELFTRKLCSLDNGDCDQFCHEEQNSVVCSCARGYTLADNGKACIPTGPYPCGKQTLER
TMPRSS2, sequence (O15393 whole entry): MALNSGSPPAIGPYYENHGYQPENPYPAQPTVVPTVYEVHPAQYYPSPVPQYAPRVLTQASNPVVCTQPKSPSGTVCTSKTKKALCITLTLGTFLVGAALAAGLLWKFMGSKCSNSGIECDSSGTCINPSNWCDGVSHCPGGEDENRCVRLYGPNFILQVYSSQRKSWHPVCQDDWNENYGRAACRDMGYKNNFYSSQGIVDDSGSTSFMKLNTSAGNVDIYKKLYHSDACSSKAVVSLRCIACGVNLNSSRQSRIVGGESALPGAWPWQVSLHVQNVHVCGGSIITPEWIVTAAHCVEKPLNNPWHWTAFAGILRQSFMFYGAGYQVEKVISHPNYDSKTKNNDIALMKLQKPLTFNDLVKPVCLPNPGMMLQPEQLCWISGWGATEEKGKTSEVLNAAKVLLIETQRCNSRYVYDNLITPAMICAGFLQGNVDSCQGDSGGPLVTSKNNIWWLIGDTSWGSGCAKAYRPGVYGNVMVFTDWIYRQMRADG

For `CC(C)NC(=N)c1ccc2nc(-c3cccc(-c4nc5ccc(C(=N)NC(C)C)cc5[nH]4)n3)[nH]c2c1` [Compound 11], the half-inhibitory concentration (IC50) in data set [1] was > 1 µM; in data set [2], > 1 µM; in data set [3] it was > 100 µM; in [4] (setting [9]), > 100 µM; in data set [5] it was > 100 µM; in [6] it was > 100 µM. Besides, in data set [7], the 50% inhibitory concentration (IC50) was > 10 µM. The inhibition at 100 µM in data set [3] is 27%.
Turning to `CN(C)C(=O)COC(=O)Cc1ccc(OC(=O)c2ccc(NC(=N)N)cc2)cc1` [camostat], in data set [8], the plasma half-life is 23.1 min.
Turning to `CC(C)NC(=N)c1ccc2nc(-c3ccc(-c4cccc(-c5ccc(-c6nc7ccc(C(=N)NC(C)C)cc7[nH]6)cc5)n4)cc3)[nH]c2c1` [Compound 14], the IC50 was 2.25 µM in data set [1]; > 10 µM in [2]; 83.7 µM in [3]; 16.9 µM in [4] (setting [9]); 10.9 µM in [4] (read-out: S2TA Assay IC50); > 100 µM in data set [5]. Also, the IC50 in data set [6] was 31 µM; in data set [7], > 100 µM. Further, in [3], the inhibition at 100 µM turned out to be 77.4%.
With `N=C(N)c1ccc(-c2ccc(-c3ccc(C(=N)N)cc3)o2)cc1` [Compound 7], the half-maximal inhibitory concentration (IC50) was 79.1 µM in [1]; 30.9 µM in [2]; > 100 µM in data set [3]; > 100 µM in data set [4] (setting [9]); > 100 µM in [5]; > 100 µM in data set [6]. Moreover, 82.7 µM corresponded to half-maximal inhibition in [7] (IC50). In data set [2] (relative to pentamidine), the “fold less potential factor Xa inhibitor relative to pentamidine” value was found to be 5 fold. The inhibition at 100 µM in data set [3] amounted to 2.66%.
As for `N=C(N)c1ccc2nc(-c3ccc(-c4cccc(-c5ccc(-c6nc7ccc(C(=N)N)cc7[nH]6)cc5)n4)cc3)[nH]c2c1` [Compound 13], the half-inhibitory concentration (IC50) was 0.929 µM in data set [1]; 4.89 µM in [2]; > 100 µM in data set [3]; 13.7 µM in data set [4] (setting [9]); > 100 µM in data set [5]; 37 µM in data set [6]. Also, in [7], the half-maximal inhibitory concentration (IC50) turned out to be 72.4 µM. Also, the inhibition at 100 µM in [3] came out at 20.5%.
Consider `N=C(N)c1ccc(OCCCCCOc2ccc(C(=N)N)cc2)cc1` [Pentamidine, pentamidine, reference compound], for which the IC50 is 1.51 µM in [1]; 6.22 µM in data set [2]; 45 µM in data set [3]; 32.3 µM in data set [4] (setting [9]); > 100 µM in data set [5]; > 100 µM in [6]. 3.98 µM corresponded to half-maximal inhibition in [7] (IC50). For the same molecule, in data set [3], the inhibition at 100 µM was determined as 69.5%.
Consider `N=C(N)c1ccc2nc(-c3cccc(-c4nc5ccc(C(=N)N)cc5[nH]4)n3)[nH]c2c1` (as salt: HCl) [Compound 10], for which the melting point is > 300 °C.
In the case of `N=C(N)c1ccc2nc(-c3cccc(-c4nc5ccc(C(=N)N)cc5[nH]4)c3)[nH]c2c1` [Compound 12], the IC50 in data set [1] was 0.862 µM; in data set [2] it was 34.1 µM; in data set [3], > 100 µM; in data set [4] (setting [9]) it was > 100 µM; in data set [5], > 100 µM; in data set [6], > 100 µM. Besides, the IC50 in data set [7] was 4.89 µM. In addition, the inhibition at 100 µM in [3] worked out at 17.1%.
Regarding `N=C(N)c1ccc2nc(-c3cccc(-c4nc5ccc(C(=N)N)cc5[nH]4)n3)[nH]c2c1` [Compound 10], the IC50 in [1] stood at 0.921 µM; in [2] it was 5.93 µM; in [6] it was 37.8 µM.
With `N=C(N)c1ccc2cc(OC(=O)c3ccc(N=C(N)N)cc3)ccc2c1` [Nafamostat, nafamostat, reference compound], the plasma half-life result in data set [8] is “less than 1 min”. Moreover, the concentration for half-maximal inhibition (IC50) in data set [1] amounted to 0.0341 µM; in [2], 1.74 µM.
